Source: US20240122941A1, “THERAPY BASED ON SYNTHETIC LETHALITY IN SWI/SNF COMPLEX-DYSFUNCTION CANCER” (NATIONAL CANCER CENTER, priority 2020, published 2024)
Read-outs that look alike come from different tables or passages of the source.

Tests used:
[1] = system: JMU-RTK-2+SMARCB1 cells (JMU-RTK-2 cells overexpressing SMARCB1); experiment: Selectivity in cell growth suppression, JMU-RTK-2+SMARCB1 cells; conditions: read-out: JMU-RTK-2 + SMARCB1 IC50
[2] = system: CHLA-06-ATRT cells (atypical teratoid/rhabdoid tumor derived, SMARCB1 deficient); experiment: Cell growth suppression experiment (CellTiter-Glo), CHLA-06-ATRT cells; conditions: 72 h, read-out: IC50 CHLA-06-ATRT
[3] = system: JMU-RTK-2 cells (malignant rhabdoid tumor derived, SMARCB1 deficient); experiment: Selectivity in cell growth suppression, JMU-RTK-2 cells; conditions: for IC50: read-out: JMU-RTK-2 IC50
[4] = system: H460 cells (pulmonary adenocarcinoma derived, SMARCA2/A4 wild-type); experiment: Cell growth suppression experiment (CellTiter-Glo), H460 cells; format: cell-based; conditions: for IC50: cultured for 6 days, CellTiter-Glo; for viability at 10 µM: read-out: cell survival rate (%) at treatment with 10 μM, H460;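 for all read-outs here: luminescent viability read-out, compound added one day after seeding at 0.1% final DMSO, cells grown in DMEM-F12 with 10% fetal bovine serum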
[5] = system: SMARCB1 deficient cells, i.e., G-401 cells, G-402 cells, and CHLA-06-ATRT cells; experiment: Cell growth suppression experiment, SMARCB1 deficient cells (summary of Example 1); conditions: G-401, G-402 and CHLA-06-ATRT cells versus 786-O cells; result in words
[6] = system: DMS114 cells (small cell lung cancer derived, SMARCA2/A4 deficient); experiment: Cell growth suppression experiment (CellTiter-Glo), DMS114 cells; format: cell-based; conditions: for IC50: cultured for 6 days, CellTiter-Glo
[7] = system: ARID1 deficient cancer cell group versus ARID1 wild-type cell group; experiment: Experiment comparing sensitivity depending on the presence/absence of ARID1; format: cell-based; conditions: 6 days culture, CellTiter-Glo, FIG. 12; result in words
Description: Cytotoxic activity of a CBP/P300 inhibitor on ARID1 deficient cancer cells, i.e., A2780 cells (ovarian cancer derived), RMG-V cells (ovarian cancer derived), TOV21G cells (ovarian cancer derived), and OVISE cells (ovarian cancer derived), and ARID1 wild-type cells, i.e., H1048 cells, H460 cells, 786-O cells, H2228 cells, H2009 cells, and H358 cells, was compared.

[8] = system: H647 cells (SMARCA4 wild-type); experiment: Cell growth suppression experiment (CellTiter-Glo), H647 cells; format: cell-based
Description: (§1) Cytotoxic activity of a CBP/P300 inhibitor on SMARCA4 deficient cells, i.e., H1693 cells (pulmonary adenocarcinoma derived) and H1819 cells (pulmonary adenocarcinoma derived), and SMARCA4 wild-type cells, i.e., H647 cells.
(§2) H1693 cells, H1819 cells, and H647 cells were obtained from the ATCC. The H1693 cells and H647 cells were cultured under 5% CO 2 conditions at 37° C. in a 10% fetal bovine serum and 1% penicillin/streptomycin-containing RPMI1640 medium. H1819 cells were cultured under 5% CO2 conditions at 37° C. in a 5% fetal bovine serum and 1% penicillin/streptomycin-containing RPMI1640 medium.
(§3) A 384-well plate was seeded with 500 cells per well. […] After completion of culture, the cell survival rate was measured using CellTiter-Glo Luminescent Cell Viability Assay (Promega, G7570).

[9] = system: H1819 cells (pulmonary adenocarcinoma derived, SMARCA4 deficient); experiment: Cell growth suppression experiment (CellTiter-Glo), H1819 cells; format: cell-based; conditions: NCI-H1819, 72 h, cultured for 3 days
Description: as §1, §2, §3

[10] = system: 786-O cells (renal cancer derived, SMARCB1 wild-type); experiment: Cell growth suppression experiment (CellTiter-Glo), 786-O cells; conditions: for IC50: read-out: IC50 786-O; for viability at 10 µM: read-out: cell survival rate (%) at treatment with 10 μM, 786-O
[11] = system: H1693 cells (pulmonary adenocarcinoma derived, SMARCA4 deficient); experiment: Cell growth suppression experiment (CellTiter-Glo), H1693 cells; format: cell-based; conditions: Homo sapiens, NCI-H1693, 72 h, cultured for 3 days
Description: as §1, §2, §3

[12] = system: G-401 cells (malignant rhabdoid tumor derived, SMARCB1 deficient); experiment: Cell growth suppression experiment (CellTiter-Glo), G-401 cells; conditions: for IC50: read-out: IC50 G-401
[13] = system: SMARCA2/A4 deficient cells, i.e., H23 cells, DMS114 cells, and TOV112D cells; experiment: Cell growth suppression experiment, SMARCA2/A4 deficient cells (summary of Example 8); format: cell-based; conditions: H23, DMS114 and TOV112D cells versus H460 cells; result in words
Description: Cytotoxic activity of a CBP/P300 on SMARCA2/A4 deficient cells, i.e., H23 cells (pulmonary adenocarcinoma derived), TOV112D cells (small cell ovarian cancer derived), and DMS114 cells (small cell lung cancer derived), and SMARCA2/A4 wild-type cells, i.e., H460 cells (pulmonary adenocarcinoma derived) was compared.
H23 cells, TOV112D cells, DMS114 cells, and H460 cells were cultured under 5% CO2 conditions at 37° C. in a 10% fetal bovine serum and 1% penicillin/streptomycin-containing DMEM-F12 medium.
Cells were seed on a 96-well plate at 250 to 500 cells per well. […] After completion of culture, the cell survival rate was measured using CellTiter-Glo Luminescent Cell Viability Assay (Promega, G770).

[14] = system: TOV112D cells (small cell ovarian cancer derived, SMARCA2/A4 deficient); experiment: Cell growth suppression experiment (CellTiter-Glo), TOV112D cells; format: cell-based; conditions: for IC50: cultured for 6 days, CellTiter-Glo;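 for all read-outs here: luminescent viability read-out of TOV112D cells grown in DMEM-F12 with 10% fetal bovine serum, compound exposure starting one day after plating, DMSO at 0.1% final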
[15] = system: SMARCA4 deficient cells, i.e., H1693 cells and H1819 cells; experiment: Cell growth suppression experiment, SMARCA4 deficient cells (summary of Example 11); format: cell-based; conditions: result in words
Description: as §1, §2, §3

[16] = system: H23 cells (pulmonary adenocarcinoma derived, SMARCA2/A4 deficient); experiment: Cell growth suppression experiment (CellTiter-Glo), H23 cells; format: cell-based; conditions: for IC50: cultured for 6 days, CellTiter-Glo;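 for all read-outs here: compounds tested as CBP/P300 agents, added one day after plating in 96-well plates with DMEM-F12 plus 10% fetal bovine serum, 0.1% DMSO final, luminescent viability read-out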
CBP bromodomain = CBP bromodomain (Homo sapiens (Human), UniProt Q92793); experiment: BRD inhibition experiment, CBP bromodomain TR-FRET Assay Kit
[17] = system: SMARCB1 deficient cell group versus SMARCB1 wild-type cell group; experiment: Experiment comparing sensitivity depending on the presence/absence of SMARCB1; format: cell-based; conditions: 6 days culture, CellTiter-Glo, FIG. 3; result in words
Description: Cytotoxic activity of a CBP/P300 inhibitor on SMARCB1 deficient cells, i.e., G-401 cells (malignant rhabdoid tumor derived), G-402 cells (malignant rhabdoid tumor derived), JMU-RTK-2 cells (malignant rhabdoid tumor derived), and HS-EU-1 cells (epithelioid sarcoma derived), and SMARCB1 wild-type cells, i.e., 786-O cells (renal cancer derived), VMRC-RCZ cells (renal cancer derived), Caki-1 cells (renal cancer derived), H446 cells (lung cancer derived), ES2 cells (ovarian cancer derived), H460 cells (lung cancer derived), H2228 cells (lung cancer derived), HEK293T cells (normal kidney tissue derived), and H358 cells (lung cancer derived) was compared.

[18] = system: G-402 cells (malignant rhabdoid tumor derived, SMARCB1 deficient); experiment: Cell growth suppression experiment (CellTiter-Glo), G-402 cells; conditions: Homo sapiens, G-402, 72 h, read-out: IC50 G-402
[19] = system: histone H3K27 acetylation in G-401 cells and CHLA-06-ATRT cells; experiment: Intracellular histone H3K27 acetylation inhibition experiment (Western blotting); format: cell-based; conditions: G-401 and CHLA-06-ATRT cells, 24 hours, FIG. 7
Description: G-401 cells (malignant rhabdoid tumor derived) and CHLA-06-ATRT cells (atypical teratoid/rhabdoid tumor derived) were seeded on a 6-well plate at 500000 cells per well. […] After completion of culture, the cells were detached through trypsin treatment. The culture was centrifuged and the supernatant was removed to recover cell pellets. 150 μL of RIPA buffer was added to the cell pellets to lyse the cells to extract the entire protein. Acetylation of histone H3K27 was detected by Western blotting. An anti-acetylation H3K27 antibody (Cell Signaling Technology, 8173) was used for the detection of acetylated H3K27 (FIG. 7).

[20] = Homo sapiens, NCI-H460, 144 h, 10 μM, 6 days
[21] = Homo sapiens, DMS-114, 144 h, DMS114 cells

CBP bromodomain, sequence (Q92793 1085-1192): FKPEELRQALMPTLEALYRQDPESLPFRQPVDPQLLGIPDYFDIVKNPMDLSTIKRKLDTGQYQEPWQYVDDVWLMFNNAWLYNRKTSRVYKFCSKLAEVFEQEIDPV

SMILES | cell growth suppression effect on SMARCB1 deficient cells [5] | IC50 value for the ARID1 deficient cancer cell group compared with the ARID1 wild-type cell group [7] | cell growth suppression effect on SMARCA2/A4 deficient cells [13] | IC50 ([1]; 144 h) [µM] | IC50 ([3]; 144 h) [µM] | viability at 10 µM [4, 20] [%] | IC50 ([4]; Homo sapiens, NCI-H460, 144 h) [µM] | IC50 [6, 21] [µM] | IC50 ([10]; Homo sapiens, 786-0, 72 h) [µM] | viability at 10 µM ([10]; Homo sapiens, 786-0, 72 h) [%] | IC50 ([12]; Homo sapiens, G-401, 72 h) [µM] | IC50 ([14]; Homo sapiens, 144 h) [µM] | IC50 ([16]; Homo sapiens, NCI-H23, 144 h) [µM] | IC50 value for the SMARCB1 deficient cell group compared with the SMARCB1 wild-type cell group [17] | further results
CNC(=O)Cn1cc(-c2ccc3c(c2)C(F)CC32NC(=O)N(CC(=O)N(Cc3ccc(F)cc3)[C@@H](C)C(F)(F)F)C2=O)cn1 (single isomer, unassigned) [Compound 4] | selective and potent Cell growth suppression effect | less than the IC50 value for the ARID1 wild-type cell group | particularly selective and potent cell growth suppression effect | – | – | – | – | – | – | – | – | – | – | – | IC50 ([1]; JMU-RTK-2+SMARCB1 cells, cultured for 6 days, CellTiter-Glo): 1.4 µM; IC50 [2]: 0.18 µM; IC50 ([3]; JMU-RTK-2 cells, cultured for 6 days, CellTiter-Glo): 0.0099 µM; cell survival rate (%) at treatment with 10 μM, H460 ([4]; 10 μM, 6 days): 78%; IC50 [4]: > 10 µM; IC50 ([6]; DMS114 cells): 0.0374 µM; cell survival rate (%) at treatment with 10 μM, H647 ([8]; H647 cells, 10 μM, 3 days): 60%; IC50 ([8]; Homo sapiens, NCI-H647, 72 h, H647 cells, cultured for 3 days, CellTiter-Glo): > 10 µM; cell growth suppression effect on SMARCA4 expressing H647 cells ([8]; result in words): hardly any cell growth suppression effect; IC50 [9]: 5.33 µM; cell survival rate (%) at treatment with 10 μM, 786-O ([10]; 786-O cells, 10 μM (maximum treatment concentration), 3 days): 93%; IC50 ([10]; 786-O cells, cultured for 3 days, CellTiter-Glo cell survival): > 10 µM; IC50 [11]: 0.129 µM; IC50 ([12]; G-401 cells, cultured for 3 days, CellTiter-Glo cell survival): 0.018 µM; IC50 [14]: 0.142 µM; cell growth suppression effect on SMARCA4 deficient cells [15]: selective and potent cell growth suppression effect; IC50 [16]: 0.248 µM
Cn1cc(C(=O)Nc2ccc3c(c2)OCCO3)c2ccccc2c1=O [Compound 12] | – | – | – | 14.9 | 3.9 | 100 | > 10 | > 10 | > 10 | 104 | > 10 | > 10 | > 10 | – | Selective Index ([3]; IC50 of JMU-RTK-2+SMARCB1 cells with respect to IC50 of JMU-RTK-2 cells): 3.9; cell survival rate (%) at treatment with 10 μM, DMS114 ([6]; DMS114 cells, 10 μM, 6 days): 86%; cell growth suppression effect on DMS114 cells ([6]; result in words): cell growth suppression effect; cell survival rate (%) at treatment with 10 μM, G-401 ([12]; G-401 cells, 10 μM (maximum treatment concentration), 3 days): 83%; cell survival rate (%) at treatment with 10 μM, TOV112D ([14]; 10 μM, 6 days): 99%; cell survival rate (%) at treatment with 10 μM, H23 ([16]; 10 μM, 6 days): 97%; IC50 (CBP bromodomain): < 0.025 µM
CNC(=O)Nc1ccc2c(c1)CC[C@]21OC(=O)N(CC(=O)N(Cc2ccc(F)cc2)[C@@H](C)C(F)(F)F)C1=O [Compound 16] | selective and potent Cell growth suppression effect | less than the IC50 value for the ARID1 wild-type cell group | particularly selective and potent cell growth suppression effect | 13 | 0.13 | 62 | > 10 | 0.28 | > 10 | 94 | 0.35 | 0.435 | 0.867 | less than the IC50 value for the SMARCB1 wild-type cell group | IC50 [18]: 8.9 µM
COc1ccc(CCc2nc3cc(-c4c(C)noc4C)ccc3n2C[C@H](C)N2CCOCC2)cc1Cl [SGC-CBP30, reference compound] | – | – | – | – | – | – | – | – | – | – | – | – | – | less than the IC50 value for the SMARCB1 wild-type cell group | intracellular histone H3K27 acetylation [19]: reduced treatment concentration dependent intracellular histone H3K27 acetylation
